In this test the target is T1, folate receptor alpha (FRα) (Homo sapiens, UniProt P15328).
T1 construct: made in house
Description: Biolayer interferometry (BLI) binding of folate and folate-peptide conjugates to FRα. Particulars: for kon: pH 7.4, read-out: ka (association rate constant); for koff: pH 7.4, read-out: kd (dissociation rate constant). As to the method: All steps performed for purification and refolding of FRα were carried out according to our previous report. However, some different reagents were used. […] The inclusion bodies were solubilized and purified with 8 M urea instead of 6 M guanidine HCl.
The measurement procedure has been reported previously. […] To eliminate errors from non-specific binding of the analyte (FRα) on the SA biosensor chips, reference data with the same concentrations of analyte were also measured.
The obtained binding data were analyzed using a 1:1 local analysis mode applied with association and dissociation step corrections by the BLItz Pro1.2 software (ForteBio). The reference measurements were subtracted during data analysis to determine ka, kd and KD.
In general terms: In BLI a coated tip is dipped into the sample, and binding shifts an interference pattern.

Setting [1] is: BLI (BLItz), 25 °C, 10 mM PBS pH 7.4, 0.5% BSA, 0.01% Tween 20, ligand immobilized via biotin on streptavidin sensor, 1:1 local analysis, 'Folate' = folate-PEG8-biotin control.

Starred links: 1 amine or outer side, 2 acyl side, 3 side chain; linkers in the order of their positions; H or OH if unused. Non-standard residues stand in square brackets, D forms with d. Residues, ends and D or L forms follow the SMILES beside them. Groups on a side chain read outwards from the residue. *: point of attachment. PEG24 = NCCOCCOCCOCCOCCOCCOCCOCCOCCOCCOCCOCCOCCOCCOCCOCCOCCOCCOCCOCCOCCOCCOCCOCCOCCC(=O)O; X1 = O=C([C@H](Cc1ccc(-n2nnc3c2-c2ccccc2N([*:3])Cc2ccccc2-3)cc1)N[*:1])[*:2]; Pteroyl = Nc1nc2ncc(CNc3ccc(C(=O)*)cc3)nc2c(=O)[nH]1; Biotin = O=C1N[C@H]2[C@H](CS[C@H]2CCCCC(=O)*)N1; γGlu = O=C(O)[C@H](CCC(=O)[*:2])N[*:1]; βAla = NCCC(=O)O

T1 sequence (P15328 25-257): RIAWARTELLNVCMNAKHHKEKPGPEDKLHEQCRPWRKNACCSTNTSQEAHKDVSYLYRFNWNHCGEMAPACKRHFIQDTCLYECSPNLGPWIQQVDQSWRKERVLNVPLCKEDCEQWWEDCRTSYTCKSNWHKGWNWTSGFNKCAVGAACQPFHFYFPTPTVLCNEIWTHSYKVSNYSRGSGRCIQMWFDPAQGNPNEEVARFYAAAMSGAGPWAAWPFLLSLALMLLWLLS

Take `C[C@H](NC(=O)[C@H](CCCCN)NC(=O)[C@H](Cc1ccc(-n2nnc3c2-c2ccccc2N(C(=O)CCNC(=O)CC[C@H](NC(=O)c2ccc(NCc4cnc5nc(N)[nH]c(=O)c5n4)cc2)C(=O)O)Cc2ccccc2-3)cc1)NC(=O)[C@H](CCC(=O)O)NC(=O)[C@H](CO)NC(=O)[C@H](CC(=O)O)NC(=O)CCOCCOCCOCCOCCOCCOCCOCCOCCOCCOCCOCCOCCOCCOCCOCCOCCOCCOCCOCCOCCOCCOCCOCCOCCNC(=O)CCCC[C@@H]1SC[C@@H]2NC(=O)N[C@@H]21)C(=O)N[C@@H](Cc1ccc(O)cc1)C(=O)O` [DSEZKAY] ({Biotin-PEG24}-DSE[X1]([βAla-γGlu-Pteroyl])KAY-OH; C-terminus assumed): the kon was 1.1e+06 M⁻¹ s⁻¹ and the koff turned out to be 0.000265 s⁻¹. For the same molecule, where the note is “DSEZKAY relative to SEZKA”, the “fold faster association constant” value was 12 fold, the “fold faster dissociation constant” value is 3 fold and the “fold lower KD” value worked out at 4 fold.

As for `Nc1nc(=O)c2nc(CNc3ccc(C(=O)N[C@@H](CCC(=O)O)C(=O)O)cc3)cnc2[nH]1` [Folate, reference compound], under setting [1], the “ka (association rate constant)” value amounted to 6.74e+06 M⁻¹ s⁻¹ and the “kd (dissociation rate constant)” value stood at 0.00769 s⁻¹.

Consider `CC[C@H](C)[C@H](NC(=O)[C@H](Cc1ccc(-n2nnc3c2-c2ccccc2N(C(=O)CCNC(=O)CC[C@H](NC(=O)c2ccc(NCc4cnc5nc(N)[nH]c(=O)c5n4)cc2)C(=O)O)Cc2ccccc2-3)cc1)NC(=O)[C@H](Cc1ccccc1)NC(=O)CNC(=O)CCOCCOCCOCCOCCOCCOCCOCCOCCOCCOCCOCCOCCOCCOCCOCCOCCOCCOCCOCCOCCOCCOCCOCCOCCNC(=O)CCCC[C@@H]1SC[C@@H]2NC(=O)N[C@@H]21)C(=O)N[C@@H](CCC(N)=O)C(=O)O` [GFZIQ] ({Biotin-PEG24}-GF[X1]([βAla-γGlu-Pteroyl])IQ-OH; C-terminus assumed), for which the kon is 411000 M⁻¹ s⁻¹ and the koff amounted to 7.53e-05 s⁻¹.

`C[C@H](NC(=O)[C@H](CCCCN)NC(=O)[C@H](Cc1ccc(-n2nnc3c2-c2ccccc2N(C(=O)CCNC(=O)CC[C@H](NC(=O)c2ccc(NCc4cnc5nc(N)[nH]c(=O)c5n4)cc2)C(=O)O)Cc2ccccc2-3)cc1)NC(=O)[C@H](CCC(=O)O)NC(=O)[C@H](CO)NC(=O)CCOCCOCCOCCOCCOCCOCCOCCOCCOCCOCCOCCOCCOCCOCCOCCOCCOCCOCCOCCOCCOCCOCCOCCOCCNC(=O)CCCC[C@@H]1SC[C@@H]2NC(=O)N[C@@H]21)C(=O)O` [SEZKA] ({Biotin-PEG24}-SE[X1]([βAla-γGlu-Pteroyl])KA-OH; C-terminus assumed): the kon stood at 89100 M⁻¹ s⁻¹ and the koff stood at 8.01e-05 s⁻¹.

(Values after PMC6539678 (International Journal of Molecular Sciences, 2019).)
